Reference: PubChem BioAssay AID248 (DTP/NCI, 2004)
Several values for one entry are separate records, joined by “and”; a condition that tells them apart may be missing. Identical values can stand only once. Toxic doses and inconclusive results are not listed. No stated cut-off is given here; in the data, active means T/C of 150% or more; inactive means T/C below 125%.

System: L1210 leukemia ip in BDF1 mice, survival T/C
Test: NCI In Vivo Anticancer Drug Screen. Data for tumor model L1210 Leukemia (intraperitoneal) in B6D2F1 (BDF1) mice
Conditions: endpoint: mean survival time, higher = longer survival
In short: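 Transplanted-tumor mice were given test agent; controls received vehicle only. Survival readings from the two groups were divided (treated over control).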

[1] = dose: 100.0 mg/kg/injection, schedule: Q01DX009 (ip), vehicle: saline with Tween-80
[2] = dose: 100.0 mg/kg/injection, schedule: Q04DX003 (ip), vehicle: saline with Tween-80
[3] = dose: 200.0 mg/kg/injection, schedule: Q01DX009 (ip), vehicle: saline with Tween-80
[4] = dose: 200.0 mg/kg/injection, schedule: Q04DX003 (ip), vehicle: saline with Tween-80
[5] = dose: 400.0 mg/kg/injection, schedule: Q01DX009 (ip), vehicle: saline with Tween-80
[6] = dose: 400.0 mg/kg/injection, schedule: Q04DX003 (ip), vehicle: saline with Tween-80
[7] = dose: 100.0 mg/kg/injection, schedule: Q01DX001 (ip), vehicle: saline
[8] = dose: 200.0 mg/kg/injection, schedule: Q01DX001 (ip), vehicle: saline
[9] = dose: 400.0 mg/kg/injection, schedule: Q01DX001 (ip), vehicle: saline
[10] = dose: 100.0 mg/kg/injection, schedule: Q01DX001 (ip), vehicle: Klucel (hydroxypropylcellulose) (HPC)
[11] = dose: 200.0 mg/kg/injection, schedule: Q01DX001 (ip), vehicle: Klucel (hydroxypropylcellulose) (HPC)
[12] = dose: 400.0 mg/kg/injection, schedule: Q01DX001 (ip), vehicle: Klucel (hydroxypropylcellulose) (HPC)
[13] = dose: 50.0 mg/kg/injection, schedule: Q01DX009 (ip), vehicle: saline
[14] = dose: 100.0 mg/kg/injection, schedule: Q01DX009 (ip), vehicle: saline
[15] = dose: 200.0 mg/kg/injection, schedule: Q01DX009 (ip), vehicle: saline
[16] = dose: 200.0 mg/kg/injection, schedule: Q04DX002 (ip), vehicle: saline with Tween-80
[17] = dose: 400.0 mg/kg/injection, schedule: Q04DX002 (ip), vehicle: saline with Tween-80
[18] = dose: 400.0 mg/kg/injection, schedule: Q01DX001 (ip), vehicle: carboxymethylcellulose (CMC)
[19] = dose: 100.0 mg/kg/injection, schedule: Q01DX001 (ip), vehicle: carboxymethylcellulose (CMC)
[20] = dose: 200.0 mg/kg/injection, schedule: Q01DX001 (ip), vehicle: carboxymethylcellulose (CMC)
[21] = dose: 100.0 mg/kg/injection, schedule: Q04DX003 (ip), vehicle: Klucel (hydroxypropylcellulose) (HPC)
[22] = dose: 200.0 mg/kg/injection, schedule: Q04DX003 (ip), vehicle: Klucel (hydroxypropylcellulose) (HPC)
[23] = dose: 400.0 mg/kg/injection, schedule: Q04DX003 (ip), vehicle: Klucel (hydroxypropylcellulose) (HPC)

Measured: T/C

Cc1cc(C(=O)CCl)c(CN2C(=O)c3ccccc3C2=O)c(=O)n1C
inactive: [1] 98 % of control | [2] 108 % of control | [3] 100 % of control | [4] 105 % of control | [5] 92 % of control | [6] 110 % of control

CC(C)OC(=O)Nc1ccc(Cl)cc1
inactive: [1] 94 % of control | [3] 97 % of control | [5] 94 % of control

Cc1c(O)c(CN2CCOCC2)cc(CN2CCOCC2)c1O
inactive: [7] 86 % of control | [8] 90 % of control | [9] 86 % of control

O=C1CC(O)(c2ccccc2)C2(c3ccccc3)OC2O1 (stereo not drawn)
inactive: [10] 101 % of control | dose: 100.0 mg/kg/injection, schedule: Q01DX009 (ip), vehicle: Klucel (hydroxypropylcellulose) (HPC) 96 % of control | [11] 101 % of control | dose: 200.0 mg/kg/injection, schedule: Q01DX009 (ip), vehicle: Klucel (hydroxypropylcellulose) (HPC) 93 % of control | [12] 101 % of control | dose: 400.0 mg/kg/injection, schedule: Q01DX009 (ip), vehicle: Klucel (hydroxypropylcellulose) (HPC) 95 % of control

CN(C)c1n[nH]c(N)n1
inactive: dose: 25.0 mg/kg/injection, schedule: Q01DX009 (ip), vehicle: saline 100 % of control | dose: 25.0 mg/kg/injection, schedule: Q04DX002 (ip), vehicle: saline 110 % of control | [13] 98 % of control | dose: 50.0 mg/kg/injection, schedule: Q04DX002 (ip), vehicle: saline 103 % of control | [14] 96 % of control | [15] 108 % of control | [16] 111 % of control | dose: 200.0 mg/kg/injection, schedule: Q04DX002 (ip), vehicle: saline 103 % of control | dose: 400.0 mg/kg/injection, schedule: Q01DX009 (ip), vehicle: saline 116 % of control | [17] 108 % of control

CC12CC3CC(C)(C1)CC(CN=C(N)CS)(C3)C2
inactive: dose: 2.5 mg/kg/injection, schedule: Q01DX009 (ip), vehicle: Klucel (hydroxypropylcellulose) (HPC) 109 % of control | dose: 2.5 mg/kg/injection, schedule: Q04DX002 (ip), vehicle: Klucel (hydroxypropylcellulose) (HPC) 96 % of control | dose: 5.0 mg/kg/injection, schedule: Q01DX009 (ip), vehicle: Klucel (hydroxypropylcellulose) (HPC) 114 % of control | dose: 5.0 mg/kg/injection, schedule: Q04DX002 (ip), vehicle: Klucel (hydroxypropylcellulose) (HPC) 101 % of control | dose: 10.0 mg/kg/injection, schedule: Q01DX009 (ip), vehicle: Klucel (hydroxypropylcellulose) (HPC) 111 % of control | dose: 10.0 mg/kg/injection, schedule: Q04DX002 (ip), vehicle: Klucel (hydroxypropylcellulose) (HPC) 102 % of control

COC(=O)C1(C)CCCC2c3cc4c(cc3CCC21)C(=O)CC(C)O4 (stereo not drawn)
inactive: [18] 86 % of control

Cc1cc(N)c(C)c(CC#N)c1
inactive: [13] 97 % of control | [14] 118 % of control | [15] 90 % of control

CCCOC(=O)c1ccccc1
inactive: [10] 100 % of control | [11] 97 % of control | [12] 97 % of control

COc1cc2c(cc1OC)[C@@H]1Cc3ccc(OC)c(OC)c3CN1CC2
inactive: [19] 102 % of control | [20] 110 % of control | [18] 94 % of control

Cc1cccc(NC(=S)NC(=O)CCc2ccccc2)c1C
inactive: dose: 25.0 mg/kg/injection, schedule: Q01DX009 (ip), vehicle: saline with Tween-80 94 % of control and 88 % of control | dose: 50.0 mg/kg/injection, schedule: Q01DX009 (ip), vehicle: saline with Tween-80 94 % of control and 88 % of control | dose: 100.0 mg/kg/injection, schedule: Q01DX001 (ip), vehicle: saline with Tween-80 95 % of control | dose: 100.0 mg/kg/injection, schedule: Q04DX002 (ip), vehicle: saline with Tween-80 95 % of control and 90 % of control | [2] 86 % of control | dose: 200.0 mg/kg/injection, schedule: Q01DX001 (ip), vehicle: saline with Tween-80 98 % of control | [16] 93 % of control | [4] 89 % of control | dose: 400.0 mg/kg/injection, schedule: Q01DX001 (ip), vehicle: saline with Tween-80 97 % of control | [17] 93 % of control and 102 % of control | [6] 86 % of control

CCc1ccc(N=Nc2ccc(CC)cc2)cc1
inactive: [19] 98 % of control | [20] 106 % of control | [18] 101 % of control

Cc1ccccc1Oc1ccccc1N
inactive: dose: 100.0 mg/kg/injection, schedule: Q01DX009 (sc), vehicle: olive oil, sesame oil, peanut oil 101 % of control | dose: 100.0 mg/kg/injection, schedule: Q04DX003 (sc), vehicle: olive oil, sesame oil, peanut oil 110 % of control | dose: 200.0 mg/kg/injection, schedule: Q01DX009 (sc), vehicle: olive oil, sesame oil, peanut oil 101 % of control | dose: 200.0 mg/kg/injection, schedule: Q04DX003 (sc), vehicle: olive oil, sesame oil, peanut oil 94 % of control | dose: 400.0 mg/kg/injection, schedule: Q01DX009 (sc), vehicle: olive oil, sesame oil, peanut oil 97 % of control | dose: 400.0 mg/kg/injection, schedule: Q04DX003 (sc), vehicle: olive oil, sesame oil, peanut oil 116 % of control

CCCCNC(=O)CC#N
inactive: [21] 104 % of control | [22] 107 % of control | [23] 107 % of control

CC[CH2][Sn]([CH2]CC)([CH2]CC)[CH2]Cc1ccncc1
inactive: dose: 6.25 mg/kg/injection, schedule: Q04DX002 (ip), vehicle: saline with Tween-80 101 % of control | dose: 12.5 mg/kg/injection, schedule: Q04DX002 (ip), vehicle: saline with Tween-80 93 % of control | dose: 25.0 mg/kg/injection, schedule: Q04DX002 (ip), vehicle: saline with Tween-80 89 % of control

CCCNC(=O)C1C2C=CC(C2)C1C(=O)NCCC (stereo not drawn)
inactive: [2] 91 % of control | [4] 91 % of control | [6] 91 % of control

CCCCN1C(=O)C2C3CCC(O3)C2C1=O (stereo not drawn)
inactive: dose: 100.0 mg/kg/injection, schedule: Q04DX002 (ip), vehicle: Klucel (hydroxypropylcellulose) (HPC) 98 % of control | dose: 200.0 mg/kg/injection, schedule: Q04DX002 (ip), vehicle: Klucel (hydroxypropylcellulose) (HPC) 103 % of control

O=C(CN1CCOCC1)Nc1ccc(S(=O)(=O)c2ccc(Cl)cc2)cc1
inactive: [2] 101 % of control | [4] 101 % of control | [6] 95 % of control

Cc1cc([N+](=O)[O-])cc(C)c1C
inactive: [21] 98 % of control | [22] 102 % of control | [23] 107 % of control

CCOC(=O)C(CC(C)C)NP(=O)(CCl)N(CCCl)CCCl (stereo not drawn)
inactive: dose: 25.0 mg/kg/injection, schedule: Q01DX015 (ip), vehicle: other 102 % of control | dose: 50.0 mg/kg/injection, schedule: Q01DX015 (ip), vehicle: other 104 % of control | [7] 104 % of control | dose: 100.0 mg/kg/injection, schedule: Q01DX015 (ip), vehicle: other 102 % of control | dose: 100.0 mg/kg/injection, schedule: Q04DX003 (ip), vehicle: saline 95 % of control | [8] 104 % of control | dose: 200.0 mg/kg/injection, schedule: Q01DX015 (ip), vehicle: other 102 % of control | dose: 200.0 mg/kg/injection, schedule: Q04DX003 (ip), vehicle: saline 95 % of control | [9] 106 % of control | dose: 400.0 mg/kg/injection, schedule: Q04DX003 (ip), vehicle: saline 91 % of control

CCCCCCCCCCCCOP(=O)(OCCCCCCCCCCCC)c1ccccc1
inactive: dose: 50.0 mg/kg/injection, schedule: Q01DX001 (ip), vehicle: saline 100 % of control | [7] 97 % of control | [8] 94 % of control | [9] 91 % of control

COc1ccc(OC)c2c(=O)c(C(=O)O)c[nH]c12
inactive: [7] 102 % of control | [8] 100 % of control | [9] 105 % of control
